In patent US10138469B2, “Synthetic peptide and use thereof” (Toagosei Co., Ltd., priority 2014, dated 2018):

Columns and labels:
CCD1079SK cells [1] = assay: Evaluation of the state of undifferentiation of SIRIUS cells by cytoimmunostaining of undifferentiated marker genes; assay type: cell-based, human; conditions: sample 1 20 μM, 30° C., 3 days; fluorescent immunostaining
Procedure: The state of undifferentiation of the SIRIUS cells (cells forming clusters) produced using the sample 1 obtained in example 1 was evaluated by cytoimmunostaining (fluorescent immunostaining) of the state of expression of undifferentiated marker genes (endogenous Oct3/4, Nanog, Sox2, TRA1-81, SSEA-3, and ALP), i.e., the state of expression of protein that is a gene product of these genes (this protein is also referred to as “undifferentiated marker protein” below). The details of the evaluation test are as follows.
The SIRIUS cells according to this working example were produced by culture under the same conditions as the culture conditions given in example 1 of Working Example 2 with the following exceptions: a cell culture chamber having 1 well per slide (culture area of 19 mm×44 mm) (also referred to as a slide chamber) was used as the culture chamber, 1.5×10^5 cells/well was used for the number of cells per well; and 1 mL was used for the amount of medium per well. The status of differentiation of the SIRIUS cells was evaluated by cytoimmunostaining as follows on the 3rd day after the start of the main culture (culture in the presence of peptide).
Fixing, a permeabilization treatment, and a blocking treatment were first carried out on the cells in each test group. Specifically, the medium was removed from the culture chamber (slide chamber) in each test group once the culture for 3 days in the presence of peptide had been completed and the cells in each slide chamber were washed with cold PBS. PBS containing 4 volume % paraformaldehyde (4% paraformaldehyde solution) was then added to the slide chamber and the cells were fixed by standing for 15 minutes on ice. After the prescribed time had elapsed, the 4% paraformaldehyde solution was removed and the cells in the slide chamber were washed with cold PBS.
PBS containing 0.25 volume % Triton (registered trademark) X-100 (0.25% Triton (registered trademark) X-100 solution) was then added to each slide chamber and a permeabilization treatment was carried out on the cell membrane by standing for 15 minutes on ice. After the prescribed time had elapsed, the 0.25% Triton (registered trademark) X-100 solution was removed and the cells in the slide chamber were washed with cold PBS.
PBS containing 1% BSA (1% BSA-containing PBS) was added to each slide chamber and a blocking treatment was carried out for 1 hour at room temperature. After the prescribed time had elapsed, the 1% BSA-containing PBS was removed and the cells in the slide chamber were washed with cold PBS.
The primary antibodies (primary antibody dilution)—obtained by the dilution at the prescribed ratio (dilution ratio shown in Table 2) with 0.1% BSA/PBS of primary antibody that recognized the particular undifferentiated marker protein—were respectively added to the slide chambers and standing was carried out overnight (approximately 16 to 18 hours) at 4° C. After the prescribed time had elapsed, the primary antibody dilution was removed and washing with cold PBS was performed.
Table 2 gives the undifferentiation markers used to evaluate the status of expression in this working example, the details for the primary antibody (product name, product number, immunized animal, antibody class) used to recognize the particular undifferentiated marker protein, and the dilution ratio for the primary antibody. Of the primary antibodies given in Table 2, the anti-Oct3/4 antibody was from Santa Cruz Biotechnology, Inc. and the anti-Nanog antibody, anti-Sox2 antibody, anti-TRA1-81 antibody, anti-SSEA-3 antibody, and anti-ALP antibody were from Abcam plc.
Secondary antibody (secondary antibody dilution)—obtained by the 1000× dilution with 0.1% BSA/PBS of a secondary antibody that detected the particular primary antibody—was added to the slide chamber and standing was carried out in the dark for 2 hours at room temperature. After the prescribed time had elapsed, the secondary antibody dilution was removed and washing with cold PBS was performed. […]

CCD1079SK cells [2] = assay: Production of SIRIUS cells: cluster formation and cell morphology of fibroblasts cultured with peptide (phase-contrast microscopy); assay type: cell-based, human; conditions: for cell morphology in the culture: days 1 to 6
Source text: SIRIUS cells were produced using the sample 1 obtained in Working Example 1. CCD1079SK cells (ATCC (registered trademark) CRL-2097), which are a fibroblast cell culture line derived from human skin tissue, were used as the sample cells. The details of the tests are as follows.
The CCD1079SK cells, which had been stored frozen, were inoculated to six culture dishes with a diameter of 60 mm (60 mm dishes) to provide a cell density of 3×10^5 cells/well. Specifically, the thawed CCD1079SK cells were first suspended in ordinary Dulbecco's modified Eagle's medium (DMEM medium) to produce a cell suspension having a cell density of 1.5×10^5 cells/mL and 2 mL of this cell suspension was introduced into the 60 mm dish. This DMEM medium contained 10% FBS, 100 units/mL of penicillin, and 100 μg/mL of streptomycin in ordinary DMEM (Wako Pure Chemical Industries, Ltd., Cat. No. 043-30085).
The CCD1079SK cells inoculated into the 60 mm dish were precultured for several hours (approximately 6 hours) in an incubator under conditions of 5% CO2 and 37° C.
After the preculture for several hours, the CCD1079SK cells were subjected to a main culture at one of the culture conditions indicated for examples 1 to 6 in Table 1. The specific culture conditions are given in the following. […]
The culture conditions according to example 5 are as follows: the stock solution of sample 1 is added, in an amount that provides a peptide concentration in the medium of 20 μM, to the DMEM medium (in the 60 mm dish) on which the CCD1079SK cells are being cultured, and culture is carried out under a temperature condition of 13° C. […]
Other than the culture temperature and the presence/absence of peptide addition, the same culture conditions were used in all of examples 1 to 6. Thus, in all of examples 1 to 6, culture was carried out in a 5% CO2 atmosphere using a DMEM medium with the same composition (same as that used in the preculture). In addition, in all of examples 1 to 6, culture exchange and peptide addition (addition of PBS (−) in the peptide-free groups) were carried out every two days after the start of the main culture.
Observation of the cell morphology using a phase-contrast microscope was carried out in each example on the 1st, 2nd, 3rd, 4th, 5th, 6th, 7th, 9th, 13th, 21st, 27th, and 34th days after the start of the main culture (cell culture in the presence of peptide). Among the images in FIG. 2, the micrographs given for example 3 are micrographs (images) showing cell aggregates (clusters) that were rarely identified when tests were independently repeated a plurality of times using the same conditions as in example 3.

[3] = example 2: sample 1 20 μM, 37° C.

Which “expression of undifferentiated marker gene ALP by cells constituting the clusters” value (CCD1079SK cells [1]) does the source give for CKSKSRRSC [sample 1] here?
The value was “strongly expressed”.

What about the “expression of undifferentiated marker gene Nanog by cells constituting the clusters” value (CCD1079SK cells [1]) of the same sequence?
The value was “strongly expressed”.

What about the “expression of undifferentiated marker gene Oct3/4 by cells constituting the clusters” value (CCD1079SK cells [1]) of the same sequence?
The value was “strongly expressed”.

And the “expression of undifferentiated marker gene SSEA-3 by cells constituting the clusters” value (CCD1079SK cells [1])?
The value was “strongly expressed”.

What about the “expression of undifferentiated marker gene Sox2 by cells constituting the clusters” value (CCD1079SK cells [1]) of the same sequence?
Its value is “strongly expressed”.

And the “expression of undifferentiated marker gene TRA1-81 by cells constituting the clusters” value (CCD1079SK cells [1])?
Its value is “strongly expressed”.

And the “time to formation of aggregates (clusters) of aggregated cells after the start of the main culture” value (CCD1079SK cells [2]; example 1: sample 1 20 μM, 30° C., 60 mm dish)?
Its value is no more than 3 days.

And the “probability that at least 1 cluster was formed in the 60 mm dish within the 3rd day after the start of culture” value (CCD1079SK cells [2]; example 1 conditions: 20 μM, 30° C., 26 times in 27 tests)?
The value was “at least 95%”.

And the “number (frequency) of clusters formed per one 60 mm dish, average” value (CCD1079SK cells [2]; example 1 conditions: 20 μM, 30° C., within the 3rd day)?
The value was 3.

And the “formation of cell aggregates (clusters) within 3 days after the start of the main culture” value (CCD1079SK cells [2]; [3])?
The value was “did not form, or their formation frequency was very low”.

What about the “persistence of the rarely observed clusters” value (CCD1079SK cells [2]; [3]) of the same sequence?
The value was “disappeared by the 34th day”.

What about the “cell morphology in the culture” value (CCD1079SK cells [2]; example 5: sample 1 20 μM, 13° C.) of the same sequence?
Its value is “very close to a dead cell morphology”.

And the “cell morphology in the culture” value (CCD1079SK cells [2]; example 6: sample 1 20 μM, 22° C.)?
Its value is “very close to a dead cell morphology”.
